From ChEMBL document CHEMBL4138123, “Design, synthesis and biological evaluation of novel pyrazolochalcones as potential modulators of PI3K/Akt/mTOR pathway and inducers of apoptosis in breast cancer cells” (Eur J Med Chem, 2017)

Columns and labels:
Type in all cases: functional
A549 = assay: Cytotoxicity against human A549/ATCC cells assessed as growth inhibition after 48 hrs by sulforhodamine B assay; conditions: A549, 48 h
MDA-MB-231 [1] = assay: Cytotoxicity against human MDA-MB-231 cells assessed as growth inhibition after 48 hrs by sulforhodamine B assay; conditions: MDA-MB-231, 48 h
CCRF-CEM = assay: Cytotoxicity against human CCRF-CEM cells assessed as cell growth at 0.01 uM after 48 hrs by sulforhodamine B assay relative to control; conditions: read-out: Activity
SK-MEL-5 [2] = assay: Cytotoxicity against human SK-MEL-5 cells assessed as cell growth at 0.01 uM after 48 hrs by sulforhodamine B assay relative to control; conditions: SK-MEL-5, 48 h, read-out: Activity
U-251 = assay: Cytotoxicity against human U251 cells assessed as cell growth at 0.01 uM after 48 hrs by sulforhodamine B assay relative to control; conditions: U-251, 48 h, read-out: Activity
SF-539 [3] = assay: Cytotoxicity against human SF539 cells assessed as cell growth at 0.01 uM after 48 hrs by sulforhodamine B assay relative to control; conditions: SF-539, 48 h, read-out: Activity
RPMI-8226 [4] = assay: Cytotoxicity against human RPMI8226 cells assessed as cell growth at 0.01 uM after 48 hrs by sulforhodamine B assay relative to control; conditions: RPMI-8226, 48 h, read-out: Activity
RXF 393 = assay: Cytotoxicity against human RXF393 cells assessed as cell growth at 0.01 uM after 48 hrs by sulforhodamine B assay relative to control; conditions: RXF 393, 48 h, read-out: Activity
MDA-MB-231 [5] = assay: Cytotoxicity against human MDA-MB-231 cells assessed as cell growth at 0.01 uM after 48 hrs by sulforhodamine B assay relative to control; conditions: MDA-MB-231, 48 h, read-out: Activity
MDA-MB-468 [6] = assay: Cytotoxicity against human MDA-MB-468 cells assessed as cell growth at 0.01 uM after 48 hrs by sulforhodamine B assay relative to control; conditions: MDA-MB-468, 48 h, read-out: Activity
RPMI-8226 [7] = assay: Cytotoxicity against human RPMI8226 cells assessed as cell growth at 0.1 uM after 48 hrs by sulforhodamine B assay relative to control; conditions: RPMI-8226, 48 h, read-out: Activity
HOP-62 = assay: Cytotoxicity against human HOP62 cells assessed as cell growth at 0.1 uM after 48 hrs by sulforhodamine B assay relative to control; conditions: HOP-62, 48 h, read-out: Activity
HCC 2998 = assay: Cytotoxicity against human HCC2998 cells assessed as cell growth at 0.1 uM after 48 hrs by sulforhodamine B assay relative to control; conditions: HCC 2998, 48 h, read-out: Activity
SF-268 = assay: Cytotoxicity against human SF268 cells assessed as cell growth at 0.1 uM after 48 hrs by sulforhodamine B assay relative to control; conditions: SF-268, 48 h, read-out: Activity
UACC-62 [8] = assay: Cytotoxicity against human UACC62 cells assessed as cell growth at 0.1 uM after 48 hrs by sulforhodamine B assay relative to control; conditions: UACC-62, 48 h, read-out: Activity
SK-OV-3 = assay: Cytotoxicity against human SKOV3 cells assessed as cell growth at 0.1 uM after 48 hrs by sulforhodamine B assay relative to control; conditions: SK-OV-3, 48 h, read-out: Activity
MOLT-4 = assay: Cytotoxicity against human MOLT4 cells assessed as cell growth at 1 uM after 48 hrs by sulforhodamine B assay relative to control; conditions: MOLT-4, 48 h, read-out: Activity
SR = assay: Cytotoxicity against human SR cells assessed as cell growth at 1 uM after 48 hrs by sulforhodamine B assay relative to control; conditions: read-out: Activity
NCI-H23 = assay: Cytotoxicity against human NCI-H23 cells assessed as cell growth at 1 uM after 48 hrs by sulforhodamine B assay relative to control; conditions: NCI-H23, 48 h, read-out: Activity
NCI-H322M = assay: Cytotoxicity against human NCI-H322M cells assessed as cell growth at 1 uM after 48 hrs by sulforhodamine B assay relative to control; conditions: read-out: Activity
COLO 205 = assay: Cytotoxicity against human COLO205 cells assessed as cell growth at 1 uM after 48 hrs by sulforhodamine B assay relative to control; conditions: COLO 205, 48 h, read-out: Activity
UACC-257 = assay: Cytotoxicity against human UACC257 cells assessed as cell growth at 1 uM after 48 hrs by sulforhodamine B assay relative to control; conditions: UACC-257, 48 h, read-out: Activity
IGROV-1 = assay: Cytotoxicity against human IGROV1 cells assessed as cell growth at 1 uM after 48 hrs by sulforhodamine B assay relative to control; conditions: IGROV-1, 48 h, read-out: Activity
DU-145 = assay: Cytotoxicity against human DU145 cells assessed as cell growth at 1 uM after 48 hrs by sulforhodamine B assay relative to control; conditions: DU-145, 48 h, read-out: Activity
MDA-MB-231 [9] = assay: Cytotoxicity against human MDA-MB-231 cells assessed as cell growth at 1 uM after 48 hrs by sulforhodamine B assay relative to control; conditions: MDA-MB-231, 48 h, read-out: Activity
MDA-MB-468 [10] = assay: Cytotoxicity against human MDA-MB-468 cells assessed as cell growth at 1 uM after 48 hrs by sulforhodamine B assay relative to control; conditions: MDA-MB-468, 48 h, read-out: Activity
NCI-H226 = assay: Cytotoxicity against human NCI-H226 cells assessed as cell growth at 10 uM after 48 hrs by sulforhodamine B assay relative to control; conditions: NCI-H226, 48 h, read-out: Activity
SF-539 [11] = assay: Cytotoxicity against human SF539 cells assessed as cell growth at 10 uM after 48 hrs by sulforhodamine B assay relative to control; conditions: SF-539, 48 h, read-out: Activity
OVCAR-3 = assay: Cytotoxicity against human OVCAR3 cells assessed as cell growth at 10 uM after 48 hrs by sulforhodamine B assay relative to control; conditions: OVCAR-3, 48 h, read-out: Activity
MCF7 = assay: Cytotoxicity against human MCF7 cells assessed as cell growth at 10 uM after 48 hrs by sulforhodamine B assay relative to control; conditions: MCF7, 48 h, read-out: Activity
HCT-15 = assay: Cytotoxicity against human HCT15 cells assessed as cell growth at 100 uM after 48 hrs by sulforhodamine B assay relative to control; conditions: HCT-15, 48 h, read-out: Activity
SF-539 [12] = assay: Cytotoxicity against human SF539 cells assessed as cell growth at 100 uM after 48 hrs by sulforhodamine B assay relative to control; conditions: SF-539, 48 h, read-out: Activity
SK-MEL-5 [13] = assay: Cytotoxicity against human SK-MEL-5 cells assessed as cell growth at 100 uM after 48 hrs by sulforhodamine B assay relative to control; conditions: SK-MEL-5, 48 h, read-out: Activity
UACC-62 [14] = assay: Cytotoxicity against human UACC62 cells assessed as cell growth at 100 uM after 48 hrs by sulforhodamine B assay relative to control; conditions: UACC-62, 48 h, read-out: Activity
TK-10 = assay: Cytotoxicity against human TK10 cells assessed as cell growth at 100 uM after 48 hrs by sulforhodamine B assay relative to control; conditions: TK-10, 48 h, read-out: Activity

| SMILES | GI50 (A549) [µM] | LC50 (concentration giving 50% net cell kill) (A549) [µM] | TGI (A549) [µM] | GI50 (MDA-MB-231 [1]) [µM] | LC50 (MDA-MB-231 [1]) [µM] | TGI (MDA-MB-231 [1]) [µM] | growth at 0.01 µM (CCRF-CEM) [%] | growth at 0.01 µM (SK-MEL-5 [2]) [%] | growth at 0.01 µM (U-251) [%] | growth at 0.01 µM (SF-539 [3]) [%] | growth at 0.01 µM (RPMI-8226 [4]) [%] | growth at 0.01 µM (RXF 393) [%] | growth at 0.01 µM (MDA-MB-231 [5]) [%] | growth at 0.01 µM (MDA-MB-468 [6]) [%] | growth at 0.1 µM (RPMI-8226 [7]) [%] | growth at 0.1 µM (HOP-62) [%] | growth at 0.1 µM (HCC 2998) [%] | growth at 0.1 µM (SF-268) [%] | growth at 0.1 µM (UACC-62 [8]) [%] | growth at 0.1 µM (SK-OV-3) [%] | further results |
| --- | --- | --- | --- | --- | --- | --- | --- | --- | --- | --- | --- | --- | --- | --- | --- | --- | --- | --- | --- | --- | --- |
| COc1cc(C(=O)/C=C/c2cc(-c3ccc4c(c3)OCO4)n[nH]2)cc(OC)c1OC | 2.13 | 30.1 | 6.23 | 2.08 | 23.8 | 6.23 | 99 | 99 | 98 | 101 | 101 | 93 | 100 | 89 | 93 | 95 | 100 | 96 | 97 | 105 | growth at 1 µM (MOLT-4): 94%; growth at 1 µM (SR): 56%; growth at 1 µM (NCI-H23): 92%; growth at 1 µM (NCI-H322M): 84%; growth at 1 µM (COLO 205): 95%; growth at 1 µM (UACC-257): 96%; growth at 1 µM (IGROV-1): 83%; growth at 1 µM (DU-145): 97%; growth at 1 µM (MDA-MB-231 [9]): 83%; growth at 1 µM (MDA-MB-468 [10]): 68%; growth at 10 µM (NCI-H226): -41%; growth at 10 µM (SF-539 [11]): -75%; growth at 10 µM (OVCAR-3): -73%; growth at 10 µM (MCF7): -62%; growth at 100 µM (HCT-15): -45%; growth at 100 µM (SF-539 [12]): -85%; growth at 100 µM (SK-MEL-5 [13]): -97%; growth at 100 µM (UACC-62 [14]): -96%; growth at 100 µM (TK-10): -96% |
| COc1cc(-c2cc(/C=C/C(=O)c3ccc(N)cc3)[nH]n2)cc(OC)c1OC | 2.08 | 86.5 | 7.02 | 2.06 | 47.5 | 12.2 | 96 | 95 | 98 | 92 | 98 | 91 | 109 | 90 | 97 | 92 | 108 | 106 | 99 | 98 | growth at 1 µM (MOLT-4): 72%; growth at 1 µM (SR): 14%; growth at 1 µM (NCI-H23): 95%; growth at 1 µM (NCI-H322M): 94%; growth at 1 µM (COLO 205): 92%; growth at 1 µM (UACC-257): 91%; growth at 1 µM (IGROV-1): 100%; growth at 1 µM (DU-145): 78%; growth at 1 µM (MDA-MB-231 [9]): 70%; growth at 1 µM (MDA-MB-468 [10]): 50%; growth at 10 µM (NCI-H226): -73%; growth at 10 µM (SF-539 [11]): -93%; growth at 10 µM (OVCAR-3): -71%; growth at 10 µM (MCF7): -24%; growth at 100 µM (HCT-15): -17%; growth at 100 µM (SF-539 [12]): -99%; growth at 100 µM (SK-MEL-5 [13]): -94%; growth at 100 µM (UACC-62 [14]): -92%; growth at 100 µM (TK-10): -81% |
